{"source": "patent US6407098B1", "about": "“Fungicidal aza-heterocycloalkenes” (Bayer Aktiengesellschaft, priority 1995, dated 2002)", "key": {"Venturia inaequalis": {"system": "Venturia inaequalis", "experiment": "Venturia test (apple)/protective", "type": "in vivo", "conditions": "protective, active compound concentration 500 ppm, evaluation 12 days after inoculation", "procedure": "Venturia test (apple)/protective Solvent: 12.5 parts by weight of acetone Emulsifier: 0.3 parts by weight of alkylaryl polyglycol ether To produce a suitable preparation of active compound, 1 part by weight of active compound is mixed with the stated amounts of solvent and emulsifier, and the concentrate is diluted with water to the desired concentration. To test for protective activity, young plants are sprayed with the preparation of active compound until dripping wet. After the spray coating has dried on, the plants are inoculated with an aqueous conidia suspension of the apple scab causative organism Venturia inaequalis and then remain in an incubation cabin at 20° C. and 100% relative atmospheric humidity for 1 day. The plants are then placed in a greenhouse at 20° C. and a relative atmospheric humidity of about 70%. Evaluation is carried out 12 days after the inoculation."}, "[1]": {"system": "Erysiphe graminis f.sp. hordei", "experiment": "Erysiphe test (barley)/protective", "type": "in vivo", "conditions": "protective, active compound concentration 500 ppm, evaluation 7 days after inoculation", "procedure": "Erysiphe test (barley)/protective Solvent: 12.5 parts by weight of N-methyl-pyrrolidone Emulsifier: 0.3 parts by weight of alkylaryl polyglycol ether To produce a suitable preparation of active compound, 1 part by weight of active compound is mixed with the stated amounts of solvent and emulsifier, and the concentrate is diluted with water to the desired concentration. To test for protective activity, young plants are sprayed with the preparation of active compound at the stated application rate. After the spray coating has dried on, the plants are dusted with spores of Erysiphe graminis f.sp. hordei. The plants are placed in a greenhouse at a temperature of about 20° C. and a relative atmospheric humidity of about 80%, in order to promote the development of powdery mildew pustules. Evaluation is carried out 7 days after the inoculation."}, "Podosphaera leucotricha": {"system": "Podosphaera leucotricha", "experiment": "Podosphaera test (apple)/protective", "type": "in vivo", "conditions": "protective, active compound concentration 100 ppm, evaluation 10 days after inoculation", "procedure": "Podosphaera test (apple)/protective Solvent: 4.7 parts by weight of acetone Emulsifier: 0.3 parts by weight of alkylaryl polyglycol ether To produce a suitable preparation of active compound, 1 part by weight of active compound is mixed with the stated amounts of solvent and emulsifier, and the concentrate is diluted with water to the desired concentration. To test for protective activity, young plants are sprayed with the preparation of active compound. After the spray coating has dried on, the plants are inoculated by dusting with conidia of the causative organism of apple mildew (Podosphaera leucotricha). The plants are then placed in a greenhouse at 23° C. and a relative atmospheric humidity of about 70%. Evaluation is carried out 10 days after the inoculation."}, "Sphaerotheca fuliginea": {"system": "Sphaerotheca fuliginea", "experiment": "Sphaerotheca test (cucumber)/protective", "type": "in vivo", "conditions": "protective, active compound concentration 100 ppm, evaluation 10 days after inoculation", "procedure": "Sphaerotheca test (cucumber)/protective Solvent: 4.7 parts by weight of acetone Emulsifier: 0.3 parts by weight of alkylaryl polyglycol ether To produce a suitable preparation of active compound, 1 part by weight of active compound is mixed with the stated amounts of solvent and emulsifier, and the concentrate is diluted with water to the desired concentration. To test for protective activity, young plants are sprayed with the preparation of active compound. After the spray coating has dried on, the plants are dusted with conidia of the fungus Sphaerotheca fuliginea. The plants are then placed in a greenhouse at 23 to 24° C. and at a relative atmospheric humidity of about 75%. Evaluation is carried out 10 days after the inoculation."}, "logP": {"experiment": "logP", "type": "physicochemical"}}, "data": [{"compound": "CO/N=C(/C1=NOCCN1)c1ccccc1COc1ccccc1C", "note": "[Example I-1, 3-{1-[2-(2-methylphenoxymethyl)-phenyl]-1-(methoximino)-methyl}-5,6-dihydro-4H-1,2,4-oxadiazine]", "values": [{"measurement": "degree of action", "setting": "Venturia inaequalis", "result": 100, "unit": "%"}, {"measurement": "degree of action", "setting": "[1]", "result": 90, "unit": "%"}]}, {"compound": "CO/N=C(/C1=NOCCS1)c1ccccc1COc1ccccc1C", "note": "[Example I-2, 3-{1-[2-(2-methylphenoxymethyl)phenyl]-1-(methoximino)methyl}-5,6dihydro4H-1,4,2-oxathiazine]", "values": [{"measurement": "degree of action", "setting": "Venturia inaequalis", "result": 100, "unit": "%"}, {"measurement": "degree of action", "setting": "[1]", "result": 90, "unit": "%"}, {"measurement": "degree of action", "setting": "Podosphaera leucotricha", "result": 90, "unit": "%"}, {"measurement": "degree of action", "setting": "Sphaerotheca fuliginea", "result": 96, "unit": "%"}]}, {"compound": "CON=C(C1=NN(C)CCO1)c1ccccc1COc1ccccc1C", "note": "[Example I-3, 2-{1-methoximino-1-[2-(2-methylphenoxymethyl)-phenyl]-methyl}-4-methyl-5,6-dihydro4H-1,3,4oxadiazine]", "values": [{"measurement": "logP", "setting": "logP", "result": 3.54}]}]}
